From patent US10800782B2, “Inhibitors of cellular metabolic processes” (Agios Pharmaceuticals, Inc., priority 2016, dated 2020)

Target: T1, MAT2A (Homo sapiens, UniProt P31153)
T1 construct: His6; made in house; host or cells: SF9 insect cells
Assay: MAT2A biochemical assay (colorimetric inorganic phosphate detection, PiColorLock)
Details: recombinant His6-tagged MAT2A 1 μg/ml; 60 minutes preincubation at 25° C.; L-Met 80 μM, ATP 100 μM; 60 minutes reaction; read at 623 nm; read-out: MAT2A Inhibition Score
Description: In the reaction catalyzed by MAT2A enzyme, L-Met and ATP were converted to SAM, inorganic phosphate, and inorganic diphosphate. […] The concentration of malachite green phosphomolybdate produced in the detection reaction is thus directly related to the quantity of product produced by the MAT2A enzyme. Multiple commercial kits exist for this method of phosphate detection and quantification, such as PiColorLock Gold (Innova Biosciences). Typical reaction was performed in 50 μl final volume, containing buffer (Tris, pH 8.0, 50 mM KCl, 15 mM MgCl2, 300 uM EDTA, bovine serum albumin at 0.005% w/v) and 1 μg/ml MAT2A. Compounds were added in 1 μl of DMSO at the desired concentration; a typical dose response curve contained ten points with three-fold dilution between compound concentrations. […] The reaction was allowed to proceed for 60 minutes at room temperature then halted by the addition of 13 μl of PiColor Lock reagent. After a further 5 minutes of incubation at room temperature, […] of PiColor Stabilizer was added and the reactions were further incubated at 25° C. for 25 minutes. […] Recombinant MAT2A protein was expressed in SF9 insect cells and purified by metal chelate affinity chromatography, using methods well known in the art. After expression of His6-tagged MAT2A cells were disrupted by 4 passes through an M-Yl 10 Micro fluidizer (Microfluidics) set to 500 psi, and then centrifuged at 22,000 rcf for 20 min at 4° C. The supernatant was harvested and loaded at 15 cm/h on a Histrap FF 5*1 ml column (GE) which was equilibrated with 50 mM Tris, 500 mM NaCl, pH7.4. Host cell contaminants were removed by washing the column with equilibration buffer followed by equilibration buffer containing 20 mM imidazole and 60 mM imidazole to baseline. MAT2A protein was eluted by the addition of buffer containing 250 mM imidazole, dialized into 50 mM NaCl, 50 mM Tris, pH 7.4, flash frozen in liquid nitrogen, and stored at −80° C. until use.

T1 sequence (P31153 whole entry): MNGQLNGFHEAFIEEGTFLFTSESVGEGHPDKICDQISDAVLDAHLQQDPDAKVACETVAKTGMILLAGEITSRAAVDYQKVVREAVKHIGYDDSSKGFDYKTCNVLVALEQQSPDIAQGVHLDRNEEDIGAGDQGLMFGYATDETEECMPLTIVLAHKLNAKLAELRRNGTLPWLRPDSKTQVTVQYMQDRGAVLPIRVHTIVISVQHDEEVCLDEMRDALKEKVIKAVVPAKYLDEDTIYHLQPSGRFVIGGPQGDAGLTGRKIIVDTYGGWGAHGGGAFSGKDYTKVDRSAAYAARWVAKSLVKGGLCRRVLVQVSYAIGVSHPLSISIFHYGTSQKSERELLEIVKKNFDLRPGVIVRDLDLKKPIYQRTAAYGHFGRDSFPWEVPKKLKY

Structure (SMILES)	IC50 [nM]
O=c1c(-c2ccc3ncccc3c2)c(Nc2ccccn2)[nH]c2c(C3=CCCCC3)c(-c3ccccc3)nn12 [Compound 174, 3-cyclohexenyl-2-phenyl-5-(pyridin-2-ylamino)-6-(quinolin-6-yl)pyrazolo[1,5-a]pyrimidin-7(4H)-one]	< 100
O=c1c(-c2ccc3ncccc3c2)c(Nc2cnccn2)[nH]c2c(C3=CCCCC3)c(-c3ccccc3)nn12 [Compound 175, 3-cyclohexenyl-2-phenyl-5-(pyrazin-2-ylamino)-6-(quinolin-6-yl)pyrazolo[1,5-a]pyrimidin-7(4H)-one]	< 100
Cc1[nH]c2c(N3CCCCC3)c(-c3ccccc3)nn2c(=O)c1-c1ccc2[nH]c(N)nc2c1 [Compound 268, 6-(2-amino-1H-benzo[d]imidazol-5-yl)-5-methyl-2-phenyl-3-(piperidin-1-yl)pyrazolo[1,5-a]pyrimidin-7(4H)-one]	< 100
CCC(=O)Nc1[nH]c2c(-c3ccccc3)c(-c3ccccc3)nn2c(=O)c1-c1ccc2ncccc2c1 [Compound 327, N-(7-oxo-2,3-diphenyl-6-(quinolin-6-yl)-4,7-dihydropyrazolo[1,5-a]pyrimidin-5-yl)propionamide]	100 to 1000
Cc1[nH]c2c(-c3ccccc3)c(-c3ccccc3)nn2c(=O)c1-c1ccc(O)cc1 [Compound 237, 6-(4-hydroxyphenyl)-5-methyl-2,3-diphenylpyrazolo[1,5-a]pyrimidin-7(4H)-one]	< 100
Cc1[nH]c2c(-c3ccccc3)c(-c3ccccc3)nn2c(=O)c1-c1ccc2c(c1)NCCO2 [Compound 258, 6-(3,4-dihydro-2H-benzo[b][1,4]oxazin-6-yl)-5-methyl-2,3-diphenylpyrazolo[1,5-a]pyrimidin-7(4H)-one]	< 100
Cc1[nH]c2c(-c3ccccc3)c(-c3ccc(Cl)cc3)nn2c(=O)c1-c1ccc2ncccc2c1 [Compound 347, 2-(4-chlorophenyl)-5-methyl-3-phenyl-6-(quinolin-6-yl)pyrazolo[1,5-a]pyrimidin-7(4H)-one]	1000 to 10000
O=c1c(-c2ccc3ncccc3c2)c(Cn2cccn2)[nH]c2c(-c3ccccc3)c(-c3ccccc3)nn12 [Compound 320, 5-((1H-pyrazol-1-yl)methyl)-2,3-diphenyl-6-(quinolin-6-yl)pyrazolo[1,5-a]pyrimidin-7(4H)-one]	100 to 1000
COc1ccc(-c2c(Nc3cccnn3)[nH]c3c(C4=CCCCC4)c(-c4ccccc4)nn3c2=O)cc1 [Compound 157, 3-(cyclohex-1-en-1-yl)-6-(4-methoxyphenyl)-2-phenyl-5-(pyridazin-3-ylamino)pyrazolo[1,5-a]pyrimidin-7(4H)-one]	< 100
COc1ccc(-c2c(Nc3ncnc(N)n3)[nH]c3c(-c4ccccc4)c(-c4ccccc4)nn3c2=O)cc1 [Compound 134, 5-((4-amino-1,3,5-triazin-2-yl)amino)-6-(4-methoxyphenyl)-2,3-diphenylpyrazolo[1,5-a]pyrimidin-7(4H)-one]	< 100
Cc1[nH]c2c(-c3ccccc3)c(-c3ccccc3)nn2c(=O)c1-c1ccc(O)c(O)c1 [Compound 260, 6-(3,4-dihydroxyphenyl)-5-methyl-2,3-diphenylpyrazolo[1,5-a]pyrimidin-7(4H)-one]	< 100
O=c1c(-c2ccc3ncccc3c2)c(CO)[nH]c2c(C3=CCCCC3)c(-c3ccccc3)nn12 [Compound 230, 3-(cyclohex-1-en-1-yl)-5-(hydroxymethyl)-2-phenyl-6-(quinolin-6-yl)pyrazolo[1,5-a]pyrimidin-7(4H)-one]	< 100

Now from value to molecule:

IC50 [nM]	Structure (SMILES)
< 100	Cc1[nH]c2c(C3=CCCC3)c(-c3ccccc3)nn2c(=O)c1-c1ccc2ncccc2c1 [Compound 215, 3-(cyclopent-1-en-1-yl)-5-methyl-2-phenyl-6-(quinolin-6-yl)pyrazolo[1,5-a]pyrimidin-7(4H)-one]
< 100	NCc1[nH]c2c(-c3ccccc3)c(-c3ccccc3)nn2c(=O)c1-c1ccc2ncccc2c1 [Compound 224, 5-(aminomethyl)-2,3-diphenyl-6-(quinolin-6-yl)pyrazolo[1,5-a]pyrimidin-7(4H)-one]
< 100	Cc1[nH]c2c(C3CCCCC3)c(-c3ccccc3)nn2c(=O)c1-c1ccc2ncccc2c1 [Compound 277, 3-cyclohexyl-5-methyl-2-phenyl-6-(quinolin-6-yl)pyrazolo[1,5-a]pyrimidin-7(4H)-one]
< 100	COc1ccc(-c2c(Nc3nnc(N)s3)[nH]c3c(-c4ccccc4)c(-c4ccccc4)nn3c2=O)cc1 [Compound 145, 5-((5-amino-1,3,4-thiadiazol-2-yl)amino)-6-(4-methoxyphenyl)-2,3-diphenylpyrazolo[1,5-a]pyrimidin-7(4H)-one]
< 100	COc1ccc(-c2c(C)[nH]c3c(N4CCC(F)(F)CC4)c(-c4ccccc4)nn3c2=O)cc1 [Compound 213, 3-(4,4-difluoropiperidin-1-yl)-6-(4-methoxyphenyl)-5-methyl-2-phenylpyrazolo[1,5-a]pyrimidin-7(4H)-one]
< 100	Nc1[nH]c2c(-c3ccccc3)c(-c3ccccc3)nn2c(=O)c1-c1ccc(O)cc1 [Compound 276, 5-amino-6-(4-hydroxyphenyl)-2,3-diphenylpyrazolo[1,5-a]pyrimidin-7(4H)-one]
< 100	Cn1c(CO)c(-c2ccc3ncccc3c2)c(=O)n2nc(-c3ccccc3)c(-c3ccccc3)c12 [Compound 281, 5-(hydroxymethyl)-4-methyl-2,3-diphenyl-6-(quinolin-6-yl)pyrazolo[1,5-a]pyrimidin-7(4H)-one]
< 100	COc1cc(-c2c(C)[nH]c3c(-c4ccccc4)c(-c4ccccc4)nn3c2=O)ccc1O [Compound 259, 6-(4-hydroxy-3-methoxyphenyl)-5-methyl-2,3-diphenylpyrazolo[1,5-a]pyrimidin-7(4H)-one]
< 100	Cc1nc2ccc(-c3c(C)[nH]c4c(-c5ccccc5)c(-c5ccccc5)nn4c3=O)cc2cc1O [Compound 247, 6-(3-hydroxy-2-methylquinolin-6-yl)-5-methyl-2,3-diphenylpyrazolo[1,5-a]pyrimidin-7(4H)-one]
1000 to 10000	COc1ccc(-c2nn3c(=O)c(-c4ccc5ncccc5c4)c(C)[nH]c3c2-c2ccccc2)cc1 [Compound 243, 2-(4-methoxyphenyl)-5-methyl-3-phenyl-6-(quinolin-6-yl)pyrazolo[1,5-a]pyrimidin-7(4H)-one]
100 to 1000	O=C(NCCO)c1[nH]c2c(-c3ccccc3)c(-c3ccccc3)nn2c(=O)c1-c1ccc2ncccc2c1 [Compound 329, N-(2-hydroxyethyl)-7-oxo-2,3-diphenyl-6-(quinolin-6-yl)-4,7-dihydropyrazolo[1,5-a]pyrimidine-5-carboxamide]
< 100	COc1ccc(-c2c(O)[nH]c3c(-c4ccccc4)c(-c4ccccc4)nn3c2=O)cc1 [Compound 290, 5-hydroxy-6-(4-methoxyphenyl)-2,3-diphenylpyrazolo[1,5-a]pyrimidin-7(4H)-one]
< 100	COc1ccc(-c2c(Nc3cncnc3)[nH]c3c(-c4ccccc4)c(-c4ccccc4)nn3c2=O)cc1 [Compound 120, 6-(4-methoxyphenyl)-2,3-diphenyl-5-(pyrimidin-5-ylamino)pyrazolo[1,5-a]pyrimidin-7(4H)-one]
< 100	COc1ccc(-c2c(Nc3cncc(C#N)n3)[nH]c3c(-c4ccccc4)c(-c4ccccc4)nn3c2=O)cc1 [Compound 131, 6-(6-(4-methoxyphenyl)-7-oxo-2,3-diphenyl-4,7-dihydropyrazolo[1,5-a]pyrimidin-5-ylamino)pyrazine-2-carbonitrile]
